Tested on: Ca^2+ spiking in Neurospora crassa conidia expressing GCaMP6s
Assay: Ca^2+ spiking in single conidia expressing GCaMP6s
Format: cell-based
Details: conidia pre-treated with 5 mM BAPTA before ddH2O or PAF26 treatment

In the case of O=C(O)CN(CC(=O)O)c1ccccc1OCCOc1ccccc1N(CC(=O)O)CC(=O)O [BAPTA], the “frequency of Ca^2+ spiking after chelation of external Ca^2+” value is reported as 0.

— article doi:10.1101/2020.02.14.948786v2 (bioRxiv, 2020)
